From ChEMBL document CHEMBL1201862, “PubChem BioAssay data set” (2004)
Calls of active or inactive are those of the source.

Tests used:
[1] = THP-1 cell cytotoxicity, dose response, cytotoxicity control for Vif-APOBEC3G degradation inhibitor project, THP-1 cells (AID 1117359); type: functional; details: Human immunodeficiency virus 1, THP-1
Streptokinase A = molecular target: T1, Streptokinase A (Streptococcus pyogenes serotype M1, UniProt P10520); assay: S. pyogenes streptokinase expression inhibitors, potency, dose response, plasminogen activation absorbance, OD405 (AID 1914); type: functional, Streptococcus pyogenes M1 GAS;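 also: secreted streptokinase activity via plasminogen activation per viability signal from cell pellet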
T1 sequence (P10520 whole entry): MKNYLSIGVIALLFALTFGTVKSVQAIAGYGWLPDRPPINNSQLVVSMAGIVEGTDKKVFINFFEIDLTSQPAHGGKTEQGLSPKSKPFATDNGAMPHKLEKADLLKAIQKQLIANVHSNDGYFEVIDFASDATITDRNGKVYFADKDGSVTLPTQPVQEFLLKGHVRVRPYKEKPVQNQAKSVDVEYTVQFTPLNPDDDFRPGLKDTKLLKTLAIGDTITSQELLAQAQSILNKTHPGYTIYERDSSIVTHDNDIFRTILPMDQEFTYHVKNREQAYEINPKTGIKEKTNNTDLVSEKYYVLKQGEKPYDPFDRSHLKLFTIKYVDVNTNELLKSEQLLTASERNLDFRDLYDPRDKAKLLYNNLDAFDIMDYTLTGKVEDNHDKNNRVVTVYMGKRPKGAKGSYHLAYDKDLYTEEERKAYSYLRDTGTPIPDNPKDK

[2] = cytotoxicity toward NIH3T3 fibroblasts, dose response, counter-screen, cell-based, ATP luminescence, mouse fibroblasts (AID 2010); type: functional;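 also: cells exposed to compound for about 90 hours before reading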
[3] = molecular target: T2, Calpain-2 catalytic subunit (Sus scrofa, UniProt P43367); assay: pig calpain II inhibitor potency, dose response, biochemical, fluorogenic peptide substrate (AID 1420); type: functional
T2 sequence (P43367 whole entry): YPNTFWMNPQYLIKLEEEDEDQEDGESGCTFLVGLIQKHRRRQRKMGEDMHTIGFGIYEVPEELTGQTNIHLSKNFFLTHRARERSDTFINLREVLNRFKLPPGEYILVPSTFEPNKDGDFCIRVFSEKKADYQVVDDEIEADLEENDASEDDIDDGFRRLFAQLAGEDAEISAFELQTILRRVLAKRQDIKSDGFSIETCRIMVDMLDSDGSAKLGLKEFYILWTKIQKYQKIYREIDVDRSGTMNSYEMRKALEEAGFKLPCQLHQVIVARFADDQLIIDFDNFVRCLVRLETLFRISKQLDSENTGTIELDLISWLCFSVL

[4] = inhibitors of intracellular T. cruzi replication, confirmation, NIH3T3 host cells, beta-gal luminescence (AID 2044); type: functional, cell-based;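 also: intracellular parasites grown in NIH/3T3 mouse fibroblasts as host cells; luminescent beta-galactosidase reporter signal from transgenic T. cruzi replicating inside host cells; inhibitors lower the luminescence signal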
Streptococcus = assay: Group A Streptococcus viability loss, dose response, counter-screen for streptokinase expression inhibitor project, luminescence, BacTiterGlo (AID 1915); type: functional, organism-based;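 also: potency for reduction of bacterial viability or growth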
[5] = tested on: Streptococcus sp. 'group A'; assay: growth inhibition of control SK(-) GAS strain, dose response, counter-screen for streptokinase expression inhibitor project, luminescence, kanamycin, BacTiterGlo, confirmation (AID 1900); type: functional, organism-based
[6] = Vero cell cytotoxicity, dose response, cytotoxicity control for Vif-APOBEC3G degradation inhibitor project, Vero cells (AID 1117358); type: functional; details: Human immunodeficiency virus 1, Vero
Prothrombin = Prothrombin (Homo sapiens, UniProt P00734); assay: Thrombin 1536 HTS Dose Response Confirmation. [Related pubchem assays: 1046 (Thrombin 1536 HTS; hits were confirmed in this assay)]; type: functional
[7] = inhibitors of Vif binding to APOBEC3G peptide, primary screen, biochemical, TR-FRET, GST-Vif 1-94, biotin-A3G peptide, dose response retest (AID 1117319); type: functional;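 also: TR-FRET signal of purified GST-Vif binding a biotinylated A3G peptide; inhibitors lower the FRET signal by blocking Vif and A3G binding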
[8] = molecular target: Induced myeloid leukemia cell differentiation protein Mcl-1 (Homo sapiens, UniProt Q07820); type: functional
Induced myeloid leukemia cell differentiation protein Mcl-1, sequence (Q07820 whole entry): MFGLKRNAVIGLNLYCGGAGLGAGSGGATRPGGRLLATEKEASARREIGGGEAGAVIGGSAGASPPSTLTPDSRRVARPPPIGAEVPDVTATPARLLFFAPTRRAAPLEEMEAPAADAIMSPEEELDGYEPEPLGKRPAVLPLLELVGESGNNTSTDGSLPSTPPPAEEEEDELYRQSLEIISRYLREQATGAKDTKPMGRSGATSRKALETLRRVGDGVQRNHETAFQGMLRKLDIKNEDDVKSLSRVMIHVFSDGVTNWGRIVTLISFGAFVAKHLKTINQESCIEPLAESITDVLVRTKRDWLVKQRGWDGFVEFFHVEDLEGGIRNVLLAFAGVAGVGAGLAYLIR

Leucine aminopeptidase = molecular target: T3, Leucine aminopeptidase (Plasmodium falciparum 3D7, UniProt Q8IL11); assay: P. falciparum M17LAP inhibitors, primary screen, biochemical, fluorogenic H-Leu-NHMec substrate, 1536-well (AID 1619); type: functional
T3 sequence (Q8IL11 whole entry): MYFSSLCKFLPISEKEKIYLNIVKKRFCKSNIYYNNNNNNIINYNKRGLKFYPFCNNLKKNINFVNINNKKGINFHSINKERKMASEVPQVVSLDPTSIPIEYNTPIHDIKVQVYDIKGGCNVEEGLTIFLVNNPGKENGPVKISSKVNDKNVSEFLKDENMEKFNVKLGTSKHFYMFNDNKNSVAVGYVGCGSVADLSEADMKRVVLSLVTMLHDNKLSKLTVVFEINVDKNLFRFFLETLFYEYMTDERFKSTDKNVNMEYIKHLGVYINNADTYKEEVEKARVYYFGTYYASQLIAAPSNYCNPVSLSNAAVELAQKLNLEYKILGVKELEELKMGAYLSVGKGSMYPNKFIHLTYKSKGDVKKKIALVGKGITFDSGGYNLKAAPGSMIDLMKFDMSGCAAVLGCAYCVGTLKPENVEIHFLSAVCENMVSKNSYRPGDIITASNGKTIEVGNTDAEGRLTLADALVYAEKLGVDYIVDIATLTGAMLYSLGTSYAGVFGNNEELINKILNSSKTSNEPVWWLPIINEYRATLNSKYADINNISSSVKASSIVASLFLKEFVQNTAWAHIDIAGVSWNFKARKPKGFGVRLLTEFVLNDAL

[9] = Luminescence Cell-Based Dose Response HTS to Identify Activators of Luciferase Translation or Activity in H4 […] Cells. [Related pubchem assays: 1829 (Project Summary), 1814 (Primary HTS)]; type: functional
H4 = assay: Luminescence Cell-Based Dose Response HTS to Identify Activators of 5'UTR Stem-Loop Driven Prion Protein mRNA Translation in H4 Neuroglioblastoma Cells. [Related pubchem assays: 1829 (Project Summary), 1814 (Primary HTS)]; type: functional; details: Homo sapiens
[10] = Luminescence Cell-Based Dose Confirmation HTS to Identify Activators of 5'UTR Stem-Loop Driven Alpha-Synuclein mRNA Translation in H4 Neuroglioblastoma Cells. [Related pubchem assays: 1829 (Project Summary), 1814 (Primary HTS)]; type: functional
[11] = cytotoxicity in KRAS-transformed pancreatic duct cells, primary screen, cell-based, fluorescence, HTS (AID 431); type: functional; details: Homo sapiens;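 also: cell line used: HPDE-C7K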
[12] = cytotoxicity in HPDE-C7 cells, cell-based, fluorescence, HTS (AID 430); type: functional; details: Homo sapiens
[13] = molecular target: Voltage-dependent T-type calcium channel subunit alpha-1H (Homo sapiens, UniProt O95180); type: functional;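 also: channel activity triggered by adding a high calcium stimulation buffer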
Voltage-dependent T-type calcium channel subunit alpha-1H, sequence (O95180 whole entry): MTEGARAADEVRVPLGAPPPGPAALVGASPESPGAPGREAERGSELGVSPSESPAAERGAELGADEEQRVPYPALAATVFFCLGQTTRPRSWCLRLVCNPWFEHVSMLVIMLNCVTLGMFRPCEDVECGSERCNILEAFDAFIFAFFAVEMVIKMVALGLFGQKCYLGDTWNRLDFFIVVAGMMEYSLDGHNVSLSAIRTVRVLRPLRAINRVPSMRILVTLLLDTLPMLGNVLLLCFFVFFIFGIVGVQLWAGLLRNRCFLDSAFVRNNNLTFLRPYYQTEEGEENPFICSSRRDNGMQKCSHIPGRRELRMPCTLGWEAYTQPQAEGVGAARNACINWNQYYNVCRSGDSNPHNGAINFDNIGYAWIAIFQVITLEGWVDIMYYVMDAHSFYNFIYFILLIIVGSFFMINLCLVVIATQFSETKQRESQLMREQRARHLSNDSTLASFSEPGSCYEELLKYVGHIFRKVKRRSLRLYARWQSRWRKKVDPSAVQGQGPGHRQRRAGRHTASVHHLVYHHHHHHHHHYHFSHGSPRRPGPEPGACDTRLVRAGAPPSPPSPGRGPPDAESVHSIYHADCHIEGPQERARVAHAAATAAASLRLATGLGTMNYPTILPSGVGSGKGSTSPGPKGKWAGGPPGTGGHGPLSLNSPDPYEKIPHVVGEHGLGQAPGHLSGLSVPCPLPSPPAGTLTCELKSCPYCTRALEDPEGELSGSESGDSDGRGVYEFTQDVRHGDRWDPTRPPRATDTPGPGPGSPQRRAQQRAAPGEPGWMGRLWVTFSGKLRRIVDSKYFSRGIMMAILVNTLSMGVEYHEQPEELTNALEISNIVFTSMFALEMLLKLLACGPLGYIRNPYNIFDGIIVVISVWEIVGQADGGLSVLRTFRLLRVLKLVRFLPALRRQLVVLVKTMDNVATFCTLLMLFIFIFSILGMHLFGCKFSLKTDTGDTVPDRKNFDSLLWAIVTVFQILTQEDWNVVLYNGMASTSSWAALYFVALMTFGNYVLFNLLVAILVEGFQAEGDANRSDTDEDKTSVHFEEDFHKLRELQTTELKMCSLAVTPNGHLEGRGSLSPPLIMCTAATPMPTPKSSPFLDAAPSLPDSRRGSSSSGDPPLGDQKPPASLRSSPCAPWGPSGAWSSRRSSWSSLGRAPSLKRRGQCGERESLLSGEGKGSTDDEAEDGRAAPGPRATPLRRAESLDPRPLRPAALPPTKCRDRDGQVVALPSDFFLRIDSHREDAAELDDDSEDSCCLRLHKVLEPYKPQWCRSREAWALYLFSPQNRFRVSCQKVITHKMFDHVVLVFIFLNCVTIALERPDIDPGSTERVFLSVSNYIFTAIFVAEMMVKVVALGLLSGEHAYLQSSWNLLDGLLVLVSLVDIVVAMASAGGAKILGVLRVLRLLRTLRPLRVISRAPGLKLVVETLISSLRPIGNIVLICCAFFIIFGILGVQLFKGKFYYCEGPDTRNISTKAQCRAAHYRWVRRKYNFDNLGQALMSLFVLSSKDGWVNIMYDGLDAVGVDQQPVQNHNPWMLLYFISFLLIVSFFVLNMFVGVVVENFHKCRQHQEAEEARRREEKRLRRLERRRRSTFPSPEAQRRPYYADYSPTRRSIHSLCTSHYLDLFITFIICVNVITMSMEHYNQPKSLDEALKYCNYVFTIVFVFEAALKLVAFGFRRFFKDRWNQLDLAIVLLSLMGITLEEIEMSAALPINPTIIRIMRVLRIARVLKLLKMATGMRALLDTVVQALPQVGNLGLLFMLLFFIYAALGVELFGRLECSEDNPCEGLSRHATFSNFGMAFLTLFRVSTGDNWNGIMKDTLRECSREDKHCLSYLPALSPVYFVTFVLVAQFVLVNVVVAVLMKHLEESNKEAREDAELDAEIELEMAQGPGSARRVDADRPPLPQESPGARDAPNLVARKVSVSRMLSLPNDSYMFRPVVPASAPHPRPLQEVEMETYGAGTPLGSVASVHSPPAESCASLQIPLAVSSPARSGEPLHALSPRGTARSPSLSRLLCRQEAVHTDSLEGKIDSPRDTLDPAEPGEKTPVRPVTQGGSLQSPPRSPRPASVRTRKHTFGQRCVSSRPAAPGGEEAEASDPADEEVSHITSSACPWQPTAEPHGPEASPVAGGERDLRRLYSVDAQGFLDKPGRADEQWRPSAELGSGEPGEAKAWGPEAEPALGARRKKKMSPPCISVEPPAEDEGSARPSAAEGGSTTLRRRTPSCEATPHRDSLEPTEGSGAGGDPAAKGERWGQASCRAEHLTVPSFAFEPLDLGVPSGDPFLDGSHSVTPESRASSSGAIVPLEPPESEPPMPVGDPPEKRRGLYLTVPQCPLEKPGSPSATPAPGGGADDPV

[14] = A Cell Based Secondary Assay To Explore Cytotoxicity of Compounds that Sensitize Mycobacterium Tuberculosis to Beta-Lactam Antibiotics.; type: functional
[15] = molecular target: T4, Rac GTPase-activating protein 1 (Homo sapiens, UniProt Q9H0H5); assay: MgcRacGAP GTPase-activating activity inhibitors, confirmation, biochemical, ADP Hunter fluorescence, primary and confirmatory (AID 624330); type: functional
T4 sequence (Q9H0H5 whole entry): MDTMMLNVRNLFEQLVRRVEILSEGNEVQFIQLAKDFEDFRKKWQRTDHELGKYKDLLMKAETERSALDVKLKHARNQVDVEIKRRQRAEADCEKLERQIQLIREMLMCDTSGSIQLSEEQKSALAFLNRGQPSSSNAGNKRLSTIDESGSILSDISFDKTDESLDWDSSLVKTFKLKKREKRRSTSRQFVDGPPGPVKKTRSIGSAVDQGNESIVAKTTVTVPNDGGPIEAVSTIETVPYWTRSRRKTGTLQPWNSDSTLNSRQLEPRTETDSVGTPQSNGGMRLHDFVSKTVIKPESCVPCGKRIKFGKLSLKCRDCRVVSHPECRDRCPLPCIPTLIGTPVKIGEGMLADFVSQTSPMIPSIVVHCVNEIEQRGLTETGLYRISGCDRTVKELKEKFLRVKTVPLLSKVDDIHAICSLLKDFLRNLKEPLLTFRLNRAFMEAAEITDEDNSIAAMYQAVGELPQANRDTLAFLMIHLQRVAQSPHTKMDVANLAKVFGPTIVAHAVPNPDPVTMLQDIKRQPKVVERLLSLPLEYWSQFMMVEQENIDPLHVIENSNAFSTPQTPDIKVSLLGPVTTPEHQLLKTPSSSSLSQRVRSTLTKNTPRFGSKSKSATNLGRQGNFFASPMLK

Caspase-6 = molecular target: T5, Caspase-6 (Homo sapiens, UniProt P55212); assay: human caspase-6 inhibitors, dose response, biochemical, VEID-R110 fluorescence, cherry-pick (AID 720632)
T5 sequence (P55212 whole entry): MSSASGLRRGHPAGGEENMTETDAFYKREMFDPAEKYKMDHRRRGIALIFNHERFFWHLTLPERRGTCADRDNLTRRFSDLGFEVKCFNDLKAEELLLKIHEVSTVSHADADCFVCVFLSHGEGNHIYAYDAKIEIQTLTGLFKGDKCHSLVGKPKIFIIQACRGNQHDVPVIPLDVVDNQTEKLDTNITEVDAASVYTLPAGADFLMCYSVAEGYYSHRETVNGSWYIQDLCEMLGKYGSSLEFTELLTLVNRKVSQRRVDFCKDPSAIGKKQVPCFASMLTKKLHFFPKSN

[16] = P. falciparum Dd2 growth inhibitors, dose response, SYBR Green, cherry-picked samples (AID 1159567); type: functional, cell-based
Nonstructural protein 1 = Nonstructural protein 1 (Influenza A virus, UniProt Q194T2); type: functional, Influenza A virus (A/California/07/2009(H1N1))
Nonstructural protein 1, sequence (Q194T2 whole entry): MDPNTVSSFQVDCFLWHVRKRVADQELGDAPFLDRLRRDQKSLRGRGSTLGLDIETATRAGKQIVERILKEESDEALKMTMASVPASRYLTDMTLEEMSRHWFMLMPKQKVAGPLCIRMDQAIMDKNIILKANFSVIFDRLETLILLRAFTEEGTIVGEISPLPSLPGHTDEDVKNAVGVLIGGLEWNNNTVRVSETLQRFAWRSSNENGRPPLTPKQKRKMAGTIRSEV

SMILES: O=C(NNc1cc(Cl)cc(Cl)c1)c1c(F)cccc1Cl
- CC50 [1]: > 40 µM (active)

SMILES: O=S(=O)(Nc1ccc(-c2csc(-c3ccccc3)n2)cc1)c1ccc(F)cc1
- EC50 (Streptokinase A): 8.48 µM (active)
- EC50 [2]: > 60 µM (not active)
- IC50 [3]: 8.02 µM (not active)
- EC50 [4]: 2.45 µM (active)
- EC50 (Streptococcus): 5.63 µM (active)
- EC50 [5]: 2.05 µM (active)

SMILES: COC(=O)c1c(NC(=O)CC2NCCNC2=O)sc2c1CCCC2 (stereo unspecified)
- CC50 [6]: > 40 µM (active)

SMILES: CC(=O)Nc1ccc(S(=O)(=O)n2cnc3cc(C)c(C)cc32)cc1
- IC50 (Prothrombin): > 50 µM (not active)

SMILES: O=C1c2ccccc2C(=O)N1CCC(c1ccc(F)cc1)c1ccco1 (stereo unspecified)
- IC50 [7]: > 100 µM (active)

SMILES: Cn1c(N)c(C(=O)COC(=O)c2ccc(Cl)c(S(=O)(=O)N3CCCCC3)c2)c(=O)n(C)c1=O
- IC50 [3]: 29.2 µM (not active)

SMILES: Cc1cc(N2CCCCC2)nc2ccc(NC(=O)c3ccc(Br)o3)cc12
- IC50 [3]: 3.3 µM (not active)

SMILES: c1ccc(CCc2nn3c(C4COc5ccccc5O4)nnc3s2)cc1 (stereo unspecified)
- CC50 [1]: > 40 µM (active)

SMILES: COc1cc(C2Nc3cccc4cccc(c34)N2)cc(OC)c1OC(C)=O
- CC50 [1]: > 40 µM (active)
- IC50 [8]: 2.8 µM (active)

SMILES: CCOc1ccc(NC(=O)CSc2nc(N)c(-c3ccccc3)c(=O)[nH]2)cc1
- IC50 (Leucine aminopeptidase): 5.72 µM (active)

SMILES: COc1cccc(-c2nn(C)c3sc(C(=O)Nc4ccc5c(c4)OCCO5)cc23)c1
- EC50 [9]: 22.9 µM (active)
- EC50 (Streptokinase A): > 150 µM (not active)
- EC50 (H4): > 120 µM (not active)
- CC50 [6]: > 40 µM (active)
- EC50 [10]: 5.99 µM (active)
- EC50 (Streptococcus): 13.9 µM (active)
- EC50 [5]: 6.53 µM (active)

SMILES: CN1CCN(C(=O)CSc2nc(-c3cccs3)cc(-c3cccs3)c2C#N)CC1
- EC50 [11]: 9.41 µM (active)
- EC50 [12]: 10 µM (active)

SMILES: CCOc1ccc2nc(O)c(CN(Cc3ccco3)C(=O)c3ccc(Br)cc3)cc2c1
- CC50 [6]: 32.4 µM (active)

SMILES: CC(C)(C)n1nc2c(c1NC(=O)c1ccc(Br)o1)C[S+]([O-])C2 (stereo unspecified)
- IC50 [7]: > 100 µM (active)

SMILES: O=C(Nc1ccccc1)c1nnn(Cc2ccccc2)c1NC(=O)C(F)(F)F
- EC50 [13]: 4.59 µM (active)

SMILES: CCCCC1=CC2=C(c3ccco3)C(=O)C(C)(OC(=O)c3ccc(OC)cc3)C(=O)C2=CN1CCCCO (stereo unspecified)
- IC50 [7]: > 100 µM (active)

SMILES: COc1ccc(-n2c(=O)[nH]c3ccccc3c2=O)c(OC)c1
- IC50 [7]: > 100 µM (active)

SMILES: Cn1c(Cl)nc2c1c(=O)n(Cc1cccc(Br)c1)c(=O)n2C
- IC50 (Prothrombin): > 50 µM (not active)

SMILES: Cn1c(SCC(=O)NCc2ccc3c(c2)OCO3)nnc1C1COc2ccccc2O1 (stereo unspecified)
- IC50 (Leucine aminopeptidase): < 1 µM (active)

SMILES: CCC(=O)Oc1ccc2c(C)c(Cl)c(=O)oc2c1
- IC50 (Prothrombin): > 50 µM (not active)

SMILES: Cc1ccc(S(=O)(=O)c2nc(-c3ccccc3)oc2NCc2cccnc2)cc1
- EC50 [13]: 8.55 µM (active)

SMILES: Cc1c(C=O)c(C=O)c(C)n1Cc1ccccc1
- CC50 [14]: 4.47 µM (active)
- CC50 [6]: 6.52 µM (active)

SMILES: COc1cc(/C=N/Nc2ccc(C(=O)O)cc2)ccc1O
- IC50 [15]: 39.9 µM (active)
- AC50 (Caspase-6): 11.1 µM (active)

SMILES: O=C(NC1CCCCC1)N1CCS/C1=N\c1ccccc1
- EC50 [13]: 7.51 µM (active)

SMILES: Clc1ccc(/C(Cc2nc3ccccc3[nH]2)=N\Nc2ccccc2)cc1
- CC50 [1]: > 40 µM (active)

SMILES: CC1=NNC(=O)C1CCC(=O)N/N=C\c1ccc(Cl)c(Cl)c1 (stereo unspecified)
- IC50 (Leucine aminopeptidase): 15 µM (active)

SMILES: C/C(=N\NC(=O)Cc1c(C)n[nH]c1O)c1ccc2ccccc2c1
- IC50 (Leucine aminopeptidase): 14 µM (active)

SMILES: COc1ccccc1-c1ccccc1[C@@H]1[C@@H](C#N)N(C(=O)C2CC2)[C@@H]1CO
- AC50 [16]: 17.4 µM (active)

SMILES: COc1ccc(NC(=O)N(C)C[C@@H]2Oc3cc(-c4ccc(C)cc4)ccc3S(=O)(=O)N([C@@H](C)CO)C[C@@H]2C)cc1
- AC50 [16]: 3.21 µM (active)

SMILES: O=C(N/N=C/c1cc(Br)c(O)c(Br)c1O)c1cccnc1
- IC50 (Nonstructural protein 1): 15.5 µM (active)
- AC50 (Caspase-6): 22.9 µM (active)
